Measured values reported in PubChem BioAssay AID720570 (Broad Institute, 2013).

These compounds were tested on TC71 Ewing sarcoma viability, CellTiter-Glo ATP, 72 h (assay: TC71 Ewing sarcoma cell killing, confirmation, luminescence, cherry-picked samples, retest (AID 720570)).

**Q.** With `COc1ccc(-c2cn(-c3ccc(OC)cc3)c3[n+]2-c2ccccc2CC3)cc1` as the compound, how does the AC35 read?
**A.** 14.4 µM

**Q.** How did the AC35 turn out when `Cc1ccc(S(=O)(=O)Nc2ccc3c(c2)C(=O)N([C@H](C)CO)C[C@H](C)[C@@H](CN(C)Cc2ccc(C(F)(F)F)cc2)OCCCC[C@H](C)O3)cc1` was run?
**A.** 12.1 µM

**Q.** How did the AC35 turn out when `C[C@@H]1CN([C@@H](C)CO)C(=O)c2cc(NS(=O)(=O)c3ccc(Cl)cc3)ccc2O[C@@H]1CN(C)Cc1ccc(C(=O)Nc2ccccc2N)cc1` was run?
**A.** 12.7 µM

**Q.** Which AC35 does the source give for `Cc1[nH][nH]c(=O)c1C(c1c(C)[nH][nH]c1=O)c1cn(Cc2ccc(Cl)c(Cl)c2)c2ccccc12` here?
**A.** 11.3 µM

**Q.** Which AC35 does the source give for `COc1ccc(C2=Nn3c(nnc3-c3ccccc3OC)SC2)cc1OCC1CC1` here?
**A.** 6.68 µM

**Q.** For `COC1C(C)OC(OC2CC(C)(O)Cc3cc4c(c(O)c32)C(=O)c2c(O)cc3c(c2C4=O)OC2OC3(C)C(O)C(N(C)C)C2O)C(OC)C1(C)OC` (stereo not drawn), which AC35 is on record?
**A.** 0.169 µM

**Q.** `CCOc1ccc(OCc2ccc(C(=O)NN=Cc3ccc[nH]3)cc2)cc1` was tested. Which AC35 did it give?
**A.** 0.504 µM

**Q.** How did the AC35 turn out when `O=C1CCCC2=C1C(c1ccccn1)Nc1ccc(C(=O)c3ccccc3)cc1N2` (stereo not drawn) was run?
**A.** 17.4 µM

**Q.** How did the AC35 turn out when `C[C@@H]1O[C@@H](O[C@@H]2C=C3CCC4C(CC[C@]5(C)[C@@H](c6ccc(=O)oc6)CC[C@]45O)[C@@]3(C)CC2)[C@H](O)[C@H](O)[C@H]1O` (stereo partly drawn) was run?
**A.** 0.0271 µM

**Q.** With `C[C@@H]1CN([C@@H](C)CO)C(=O)Cc2cc(N(C)C)ccc2O[C@H]1CN(C)Cc1ccc(C(=O)Nc2ccccc2N)cc1` as the compound, how does the AC35 read?
**A.** 13.1 µM

**Q.** For `COc1ccc(/C=C/C(=O)c2cc(F)ccc2OC(=O)c2ccccc2OC)cc1OC`, which AC35 is on record?
**A.** 1.59 µM

**Q.** How did the AC35 turn out when `CCCCCCCCCCCCCCCCn1cc[n+](C)c1` was run?
**A.** 10.2 µM

**Q.** With `Nc1nc(N)c(-c2cccc(C(F)(F)F)c2)c(Cc2cccc(C(F)(F)F)c2)n1` as the compound, how does the AC35 read?
**A.** 4.27 µM

**Q.** `Cc1ccc(C)c(S(=O)(=O)N2CCN(c3ncnc4sccc34)CC2)c1` was tested. Which AC35 did it give?
**A.** 6.72 µM

**Q.** `COc1ccc(S(=O)(=O)N2CC[C@@H]3[C@@H](CO)Nc4ccc(-c5ccc(C#N)cc5)cc4[C@@H]32)cc1` was tested. Which AC35 did it give?
**A.** 2.52 µM

**Q.** How did the AC35 turn out when `CC(C)CC#Cc1ccc([C@@H]2[C@@H](CO)N3CCCCN(S(=O)(=O)c4ccc(F)cc4)C[C@H]23)cc1` was run?
**A.** 13.2 µM

**Q.** `COc1ccc(-c2cnc3c(NC=O)cc(-c4ccccc4OC)cn23)cc1OC` was tested. Which AC35 did it give?
**A.** 0.147 µM

**Q.** For `O=C(CCc1ccccc1)NC(c1cccs1)c1cc(Cl)c2cccnc2c1O` (stereo not drawn), which AC35 is on record?
**A.** 2.81 µM

**Q.** `N#CC1=C(N)Oc2cc(N)ccc2C1c1cccc(F)c1` (stereo not drawn) was tested. Which AC35 did it give?
**A.** 4.98 µM

**Q.** Which AC35 does the source give for `OCC1OC(n2cnc3c(NCc4ccco4)ncnc32)C(O)C1O` (stereo not drawn) here?
**A.** 7.82 µM

**Q.** `COCC(=O)Nc1ccc2c(c1)[C@@H]1C[C@@H](CC(=O)NCc3ccc(-c4ccccc4)cc3)O[C@@H](CO)[C@@H]1O2` was tested. Which AC35 did it give?
**A.** 12.9 µM

**Q.** For `CN1c2ccc(-c3ccc(C#N)cc3)cc2[C@H]2[C@H](CCN2S(=O)(=O)c2cccc(F)c2)[C@@H]1CO`, which AC35 is on record?
**A.** 5.53 µM

**Q.** Which AC35 does the source give for `Cc1cc(-c2nc3cc(F)ccc3s2)ccc1N` here?
**A.** 14.2 µM

**Q.** With `O=c1ccc2[n+]([O-])c3ccc(O)cc3oc-2c1` as the compound, how does the AC35 read?
**A.** 9.82 µM

**Q.** How did the AC35 turn out when `NC(Cc1ccc(C(F)(F)F)cc1)c1csc(NC(=O)Nc2ccccc2Cc2ccccc2)n1` (stereo not drawn) was run?
**A.** 12.7 µM

**Q.** Which AC35 does the source give for `C[C@@H]1CN([C@@H](C)CO)C(=O)Cc2cc(NC(=O)C3CCCCC3)ccc2O[C@H]1CN(C)Cc1ccc(C(=O)Nc2ccccc2N)cc1` here?
**A.** 15.6 µM

**Q.** `COC(=O)C1=C(C)N(Cc2ccccc2C(F)(F)F)C(=NCc2ccc(OC)cc2)NC1c1ccc(C(F)(F)F)cc1` (stereo not drawn) was tested. Which AC35 did it give?
**A.** 13.5 µM

**Q.** Which AC35 does the source give for `CN(C[C@H]1N[C@@H](CO)[C@@H]1c1ccc(C2=CCCC2)cc1)C(=O)c1cccc(F)c1` here?
**A.** 3.82 µM

**Q.** For `O=c1ccc2ccccc2c2ccccc12`, which AC35 is on record?
**A.** 10.5 µM

**Q.** `CCc1cccc2c(C(=O)CN3C(=O)NC4(CCCCC4)C3=O)c[nH]c12` was tested. Which AC35 did it give?
**A.** 4.29 µM

**Q.** How did the AC35 turn out when `C/C(=C\c1ccccc1)C(=O)N1CCC=CC1=O` was run?
**A.** 13.7 µM

**Q.** Which AC35 does the source give for `C[C@@H]1O[C@@H](O[C@@H]2C=C3CC[C@@H]4C(CC[C@]5(C)[C@@H](c6ccc(=O)oc6)CC[C@]45O)[C@@]3(C)CC2)[C@H](O)[C@H](O)[C@H]1O` (stereo partly drawn) here?
**A.** 0.0374 µM

**Q.** With `O=c1[nH]c(=O)n([C@H]2C[C@H](O)[C@@H](CO)O2)cc1C(F)(F)F` as the compound, how does the AC35 read?
**A.** 2.91 µM

**Q.** With `Cc1ccc(S(=O)(=O)Nc2ccc3c(c2)C(=O)N([C@@H](C)CO)C[C@@H](C)[C@@H](CN(C)Cc2ccc(C(=O)Nc4ccccc4N)cc2)O3)cc1` as the compound, how does the AC35 read?
**A.** 11.5 µM

**Q.** For `COc1cc2c(OC(C)=O)c3c(c(-c4ccc5c(c4)OCO5)c2cc1OC)C(=O)OC3`, which AC35 is on record?
**A.** 3.57 µM

**Q.** Which AC35 does the source give for `CCc1ccc(S(=O)(=O)c2ccc(-n3nc(C)cc3N)cc2)cc1` here?
**A.** 19.4 µM

**Q.** Which AC35 does the source give for `C[C@H]1CN([C@@H](C)CO)C(=O)Cc2cc(NC(=O)CCC(F)(F)F)ccc2O[C@H]1CN(C)Cc1ccc(C(=O)Nc2ccccc2N)cc1` here?
**A.** 9.19 µM

**Q.** `O=C(c1nnsc1S(=O)c1ccc(Cl)cc1)N1CCOCC1` (stereo not drawn) was tested. Which AC35 did it give?
**A.** 21.9 µM

**Q.** With `O=c1c(Cl)cc(Cl)nn1-c1ccccc1` as the compound, how does the AC35 read?
**A.** 13 µM

**Q.** For `COC(=O)c1ccccc1-c1c2ccc(=N)cc-2oc2cc(N)ccc12`, which AC35 is on record?
**A.** 8.14 µM

**Q.** With `OC[C@H]1[C@@H](c2ccc(C#CC3CCCC3)cc2)[C@@H]2CN(CCC(F)(F)F)CCCCN12` as the compound, how does the AC35 read?
**A.** 18 µM

**Q.** For `Oc1[nH]c2ccc(Br)cc2c1N=NC(=S)N1CCOCC1`, which AC35 is on record?
**A.** 2.87 µM

**Q.** Which AC35 does the source give for `COc1cccc(Sc2ccccc2/C=N/NC(N)=O)c1` here?
**A.** 3.12 µM
